Laboratory results published in ChEMBL document CHEMBL1201862, “PubChem BioAssay data set” (2004).
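Growth conditions: 96-well plates. Treatment: test compound, 48 hours, 5 concentrations. Analysis: linear interpolation between bracketing concentrations; unreached endpoints set to highest concentration. GI50 is the concentration that inhibits growth by half.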 Calls of active or inactive are those of the source. No stated cut-off is given here; in the data, active = GI50 up to about 1.1 µM and inactive = higher.

Assays:
Test in all cases: NCI anticancer screen, dose series, 48 h
M14 = system: M14
CAKI-1 = system: CAKI-1
UACC-62 = system: UACC-62
786-0 = system: 786-0
SW-620 = system: SW-620
SK-MEL-2 = system: SK-MEL-2
UACC-257 = system: UACC-257
NCI-H226 = system: NCI-H226
SN12C = system: SN12C
RXF 393 = system: RXF 393
A549 = system: A549
RPMI-8226 = system: RPMI-8226
COLO 205 = system: COLO 205
U-251 = system: U-251
SNB-75 = system: SNB-75
DMS-114 = system: DMS-114
IGROV-1 = system: IGROV-1
BT-549 = system: BT-549
Hs-578T = system: Hs-578T

SMILES	GI50 (M14)	GI50 (CAKI-1)	GI50 (UACC-62)	GI50 (786-0)	GI50 (SW-620)	GI50 (SK-MEL-2)	GI50 (UACC-257)	GI50 (NCI-H226)	GI50 (SN12C)	GI50 (RXF 393)	GI50 (A549)	GI50 (RPMI-8226)	GI50 (COLO 205)	GI50 (U-251)	GI50 (SNB-75)	GI50 (DMS-114)	GI50 (IGROV-1)	GI50 (BT-549)	GI50 (Hs-578T)
CCCC1C[C@H]2CCCCN2[C@H]2CCCN12 (stereo partly drawn)	> 100 µM (inactive)	> 100 µM (inactive)	> 100 µM (inactive)	> 100 µM (inactive)	> 37.8 µM (inactive)	> 100 µM (inactive)	> 100 µM (inactive)	> 100 µM (inactive)	> 100 µM (inactive)	> 48.2 µM (inactive)	> 87.1 µM (inactive)	> 43.4 µM (inactive)	> 47.4 µM (inactive)	> 44.4 µM (inactive)	> 100 µM (inactive)	> 51.5 µM (inactive)	> 100 µM (inactive)	–	–
Cc1cc2c3c(coc3c1-c1c(C)cc3c4c(coc14)C(=O)C(O)=C3C(C)C)C(=O)C(O)=C2C(C)C	11.7 µM (inactive)	12.8 µM (inactive)	3.73 µM (inactive)	10.1 µM (inactive)	5.2 µM (inactive)	4.74 µM (inactive)	14.3 µM (inactive)	10.1 µM (inactive)	10.1 µM (inactive)	10.3 µM (inactive)	4.05 µM (inactive)	4.68 µM (inactive)	2.41 µM (inactive)	3.66 µM (inactive)	10.9 µM (inactive)	2.63 µM (inactive)	3.99 µM (inactive)	–	–
CC1=C(C(=O)Nc2cc(F)c(F)cc2F)C(c2cccc([N+](=O)[O-])c2)C(C(=O)Nc2ccccc2C(F)(F)F)=C(C)N1 (stereo not drawn)	22.8 µM (inactive)	15.8 µM (inactive)	–	17.3 µM (inactive)	31 µM (inactive)	18 µM (inactive)	23.4 µM (inactive)	21.3 µM (inactive)	19.8 µM (inactive)	13.9 µM (inactive)	26.8 µM (inactive)	13 µM (inactive)	28.7 µM (inactive)	16.9 µM (inactive)	12.6 µM (inactive)	17 µM (inactive)	23.5 µM (inactive)	–	–
NC(=S)NNC(=O)/C(=C/c1ccc(/C=C(\NC(=O)c2ccccc2)C(=O)NNC(N)=S)cc1)NC(=O)c1ccccc1	> 100 µM (inactive)	> 100 µM (inactive)	> 100 µM (inactive)	> 100 µM (inactive)	> 81.8 µM (inactive)	> 100 µM (inactive)	> 100 µM (inactive)	> 100 µM (inactive)	> 79.6 µM (inactive)	> 75 µM (inactive)	> 100 µM (inactive)	32.1 µM (inactive)	> 100 µM (inactive)	85.7 µM (inactive)	30.4 µM (inactive)	> 71.8 µM (inactive)	> 79.3 µM (inactive)	–	–
O=C(c1cccs1)N(C(=S)N1CCN(c2ccccn2)CC1)C1CCCCC1	76.4 µM (inactive)	76.2 µM (inactive)	> 100 µM (inactive)	> 100 µM (inactive)	> 100 µM (inactive)	58.6 µM (inactive)	50.9 µM (inactive)	19.5 µM (inactive)	> 100 µM (inactive)	22.5 µM (inactive)	43.7 µM (inactive)	43.1 µM (inactive)	22.4 µM (inactive)	79.1 µM (inactive)	> 100 µM (inactive)	36.9 µM (inactive)	> 100 µM (inactive)	–	–
Cc1ccc(S(=O)(=O)Nc2cccc3c(=O)nc[nH]c23)cc1	> 100 µM (inactive)	> 100 µM (inactive)	> 87.1 µM (inactive)	> 100 µM (inactive)	> 100 µM (inactive)	> 100 µM (inactive)	> 87.5 µM (inactive)	> 94.6 µM (inactive)	> 100 µM (inactive)	> 65.3 µM (inactive)	72.8 µM (inactive)	17.8 µM (inactive)	> 100 µM (inactive)	> 100 µM (inactive)	> 51.1 µM (inactive)	31.2 µM (inactive)	> 100 µM (inactive)	–	–
CCN(c1ccccc1)[C@H]1C(=O)N(c2ccc([N+](=O)[O-])cc2)[C@H]1c1ccc(OC)cc1	–	73.3 µM (inactive)	35.7 µM (inactive)	> 100 µM (inactive)	> 100 µM (inactive)	> 100 µM (inactive)	> 100 µM (inactive)	> 100 µM (inactive)	98.6 µM (inactive)	37.6 µM (inactive)	> 100 µM (inactive)	> 100 µM (inactive)	38 µM (inactive)	> 100 µM (inactive)	46.9 µM (inactive)	> 100 µM (inactive)	> 100 µM (inactive)	–	–
CCOP1(=O)C=CC(Cl)=C(C)C1 (stereo not drawn)	14.7 µM (inactive)	10.5 µM (inactive)	15 µM (inactive)	15.6 µM (inactive)	11.5 µM (inactive)	12.9 µM (inactive)	15.5 µM (inactive)	> 100 µM (inactive)	11.7 µM (inactive)	4.27 µM (inactive)	31.1 µM (inactive)	6.82 µM (inactive)	19.1 µM (inactive)	24.4 µM (inactive)	4.67 µM (inactive)	15.6 µM (inactive)	23.4 µM (inactive)	–	–
Cc1ccc(NC(=O)CC/C(CC(=O)c2ccc(Cl)cc2)=N\NC(=O)C(=O)NN)cc1C	> 100 µM (inactive)	> 100 µM (inactive)	> 100 µM (inactive)	> 100 µM (inactive)	> 100 µM (inactive)	> 100 µM (inactive)	> 100 µM (inactive)	> 100 µM (inactive)	> 100 µM (inactive)	> 100 µM (inactive)	> 100 µM (inactive)	> 100 µM (inactive)	> 100 µM (inactive)	> 100 µM (inactive)	> 100 µM (inactive)	> 100 µM (inactive)	> 100 µM (inactive)	–	–
Nc1cccc(S(=O)(=O)NCC(=O)O)c1	> 100 µM (inactive)	> 100 µM (inactive)	> 100 µM (inactive)	> 100 µM (inactive)	> 100 µM (inactive)	> 100 µM (inactive)	> 100 µM (inactive)	> 100 µM (inactive)	> 100 µM (inactive)	> 100 µM (inactive)	> 100 µM (inactive)	> 100 µM (inactive)	> 100 µM (inactive)	> 100 µM (inactive)	> 100 µM (inactive)	> 100 µM (inactive)	> 100 µM (inactive)	–	–
CCOc1ccc(NCc2cc(OC)c(OC)c(OC)c2)cc1	0.371 µM (active)	–	0.423 µM (active)	0.723 µM (active)	0.35 µM (active)	–	20.9 µM (inactive)	10.3 µM (inactive)	–	–	0.847 µM (active)	0.944 µM (active)	0.384 µM (active)	0.513 µM (active)	1.04 µM (active)	0.291 µM (active)	1.49 µM (inactive)	0.12 µM (active)	1.38 µM (inactive)
